Assay results from patent US9481636B2, “N-benzylaniline derivative and uses thereof” (Nanjing Medical University, priority 2011, dated 2016).

Assays:
[1] = tested on: acute focal cerebral ischemia/reperfusion injury in rats; assay: MCAO focal cerebral ischemia/reperfusion injury: infarct area and neurological defect score; type: in vivo; settings: tail vein 1.5 mg/kg 1 h after reperfusion, 48 h, FIG. 8; for cerebral infarct area: MCAO 120 min
Description: Cerebral ischemia injury was induced by middle cerebral artery occlusion (MCAO) reperfusion model. […] The neck skin was incised along median line, and neck muscle tissue was bluntly dissected to expose and carefully isolate the common carotid artery (CCA) on the right side. The concomitant vagus nerve was gently peeled and ligated, and inward and superficial external carotid artery (ECA) was cut off; pterygopalatine artery, outward branch artery near skull base along internal carotid artery (ICA), was isolated and ligated. […] At this point, the blood supply to the middle cerebral arteries (MCA) including carotid artery and ramus communicans before Waldeyer's ring were all blocked. The depth of the inserted line was determined based on the mark. Extravascular part of the line was ligated and fixed to prevent the line from slippage. After rightside cerebral ischemia 120 minutes, the line was carefully unplugged and the broken end was ligated to achieve reperfusion after ischemia. Suturing the skin, and the rats were returned to cage and fed carefully. The body temperature of the animals was maintained constantly at 37±0.5° C. during surgery.
The modified Bederson 5-score method was used for evaluation of neurological defect symptoms. Neurological defect symptoms of rats after cerebral ischemia was evaluated by single-blinded method, i.e., test animals were marked by group by the test designers and testers who graded neurological defect symptoms didn't know the animal grouping, after the grading the testers submitted the grading results with various marks to the designers, and the designers unblinded the grouping to obtain scores for each animal in each test group.
The animals were anesthetized with 10% chloral hydrate 3.5 ml/kg, the brains were taken out after beheading, and olfactory bulb, cerebellum and lower brain stem were removed. Blood on the surface of the brain was washed with normal saline and residual water on the surface was absorbed. The brains were placed at −80° C. for 7 min, and once taken out were sliced at the coronal cross planes vertically to the sight plane with 2 mm intervals between the slices. The brain slices were immersed in a water bath (37° C., 90 min) containing 20 g/L TTC dye freshly prepared with 0.2 mol/L pH 7.4˜7.8 PBS, and normal brain tissues were stained crimson while ischemic brain tissues were pale. After the tissues were washed with normal saline, the brain slices were rapidly aligned in a row from front to back in order, and the surface residual water was absorbed to dry surface, then photographed. Statistics of the pictures were carried on using image analysis software, and ischemic area (white area) and total area on the right side were delineated. The percentage of cerebral infarct area was calculated using the following formula.
Neurological deficit symptoms were evaluated 48 h after the cerebral ischemia, then the animals were sacrificed and the brains were taken out, TTC stained, and infarct areas of the stained brain slices were measured.
The rats were under MCAO for 120 min, and 1 h after reperfusion the rats were injected through tail vein with ZL006-06, ZL006-16, ZL006-28, ZL006-30, ZL006-43, ZL006-82 or an equivalent volume of solvent, wherein the doses of each drug were 1.5 mg/kg, and the volume of injected drugs was 0.1 ml/100 g weight. Neurological deficit symptoms were evaluated 48 h after the cerebral ischemia, then the animals were sacrificed and the brains were taken out, TTC stained, and infarct areas of the stained brain slices were measured.

[2] = tested on: OGD-injuried neurons (primary cortical neurons); assay: Cell viability assay: LDH release by OGD-injured primary cortical neurons; type: cell-based, mice; settings: drug concentration 10^−6 M/L, OGD 2 hours, LDH after 8 hours
Procedure: After primary neurons were cultured for 9 days, the medium was replaced by DMEM high glucose medium containing 1% FBS, serum-starved overnight and then washed twice with OGD culture solution. This OGD culture solution contains DMEM medium, 1% FBS, 1% penicillin/streptomycin and B27, and contains no sugar. Then, the primary neurons were incubated with the test drugs for 30 minutes, OGD culture solution was added into an anaerobic tank and oxygen-deprived for 2 hours. The OGD culture solution was discarded, and replaced by oxygen-saturated DMEM medium containing 1% FBS, 1% penicillin/streptomycin and B27. After 8 hours the culture solution was collected to measure LDH level.
After the primary cortical neurons were treated with various processes, neuronal culture solution in six-well plates was pipetted to a 1.5 mL plastic centrifuge tube; cells were washed three times with PBS solution and each well was added PBS 1000 μl. The cells were freezed and thawed repeated for three times, centrifuged at 12000′ g for 5 minutes at 4° C., and the supernatant was removed for use. The activity of LDH enzyme was determined with 50 μl culture solution and 25 μl supernatant using lactate dehydrogenase kit.
Protective Effects of the Objective Compounds Against Primary Cortical Neuronal Injury Cultured In Vitro (See Table 2)

[3] = tested on: neuropathic pain in mice (mechanical stimulus); assay: Neuropathic pain model (SNL), mechanical pain threshold (von Frey); type: in vivo; settings: intragastric 40 mg/kg; for efficacy duration of a single dose / time after administration at which significant efficacy was shown: SNL, mechanical; for threshold of paw withdrawal response to mechanical stimulus: day 7 after SNL, FIG. 6

Row | SMILES | neurological defect symptoms [1] | cerebral infarct area [1] | inhibition at 1 µM ([2]; Mus musculus, Primary cortical neuron) [%] | efficacy duration of a single dose [3] | time after administration at which significant efficacy was shown [3] [h] | threshold of paw withdrawal response to mechanical stimulus [3] | Inhibition of LDH release (%) [2] [%]
1 | CC1(C)C2CCC1(C)C(OC(=O)c1cc(Cl)c(NCc3cc(Cl)cc(Cl)c3O)cc1O)C2 (stereo not drawn) [ZL006-16, bornyl-2-hydroxy-4-(2-hydroxy-3,5-dichlorobenzyl)amino-5-chlorobenzoate] | significantly alleviated | significantly reduced | 60.3 | about 6 hours | 0.5 | significantly increased | –
2 | CC(=O)Oc1cc(N(C)Cc2cc(Cl)cc(Cl)c2O)ccc1C(=O)OC1CC2CCC1(C)C2(C)C (stereo not drawn) [ZL006-30, bornyl-2-acetyloxy-4-[N-(2-hydroxy-3,5-dichlorobenzyl)-N-methyl]aminobenzoate] | significantly alleviated | significantly reduced | – | about 6 hours | 0.5 | significantly increased | 65.9
3 | CC(=O)Oc1cc(NCc2cc(Br)cc(Cl)c2O)ccc1C(=O)OC1CC2CCC1(C)C2(C)C (stereo not drawn) [ZL006-43, bornyl-2-acetyloxy-4-(2-hydroxy-3-chloro-5-bromobenzyl) aminobenzoate] | significantly alleviated | significantly reduced | – | about 6 hours | 0.5 | significantly increased | 68.9
4 | CC(=O)N(Cc1cc(Cl)cc(Cl)c1O)c1ccc(C(=O)OC2CC3CCC2(C)C3(C)C)c(O)c1 (stereo not drawn) [ZL006-28, bornyl-2-hydroxy-4-[N-(2-hydroxy-3,5-dichlorobenzyl)-N-acetyl]aminobenzoate] | significantly alleviated | significantly reduced | – | about 6 hours | 0.5 | significantly increased | 61.6
5 | COC(=O)c1ccc(N(Cc2cc(Br)cc(Cl)c2O)C(C)=O)cc1OC(C)=O [ZL006-82, methyl 2-acetyloxy-4-[N-(2-hydroxy-3-chloro-5-bromobenzyl)-N-acetyl]aminobenzoate] | significantly alleviated | significantly reduced | – | about 6 hours | 0.5 | significantly increased | 61.2
6 | CC(=O)Oc1c(Cl)cc(Cl)cc1CNc1ccc(C(=O)OC2CC3CCC2(C)C3(C)C)c(O)c1 (stereo not drawn) [ZL006-76, bornyl-2-hydroxy-4-(2-acetyloxy-3,5-dichlorobenzyl) aminobenzoate] | – | – | – | – | – | – | 40.5
7 | COc1cc(NCc2cc(Cl)cc(Cl)c2O)ccc1C(=O)OC1CC2CCC1(C)C2(C)C (stereo not drawn) [ZL006-20, bornyl-2-methoxy-4-(2-hydroxy-3,5-dichlorobenzyl) aminobenzoate] | – | – | – | – | – | – | 11.1
8 | CC(=O)Oc1cc(NCc2cc(F)ccc2O)ccc1C(=O)OC1CC2CCC1(C)C2(C)C (stereo not drawn) [ZL006-71, bornyl-2-acetyloxy-4-(2-hydroxy-5-fluorobenzyl) aminobenzoate] | – | – | – | – | – | – | 7.8
9 | CCCCOc1cc(NCc2cc(F)cc(Cl)c2O)ccc1C(=O)OC1CC2CCC1(C)C2(C)C (stereo not drawn) [ZL006-58, bornyl-2-n-butoxy-4-(2-hydroxy-3-chloro-5-fluorobenzyl) aminobenzoate] | – | – | – | – | – | – | 25.1
10 | CC1(C)C2CCC1(C)C(OC(=O)c1cc(NCc3cc(Br)cc(Cl)c3O)ccc1O)C2 (stereo not drawn) [ZL006-40, bornyl-2-hydroxy-5-(2-hydroxy-3-chloro-5-bromobenzyl) aminobenzoate] | – | – | – | – | – | – | 41.8
11 | CC(=O)Oc1cc(NCc2cc(Cl)cc(Cl)c2O)ccc1C(=O)OC1CC2CCC1(C)C2(C)C (stereo not drawn) [ZL006-06, bornyl-2-acetyloxy-4-(2-hydroxy-3,5-dichlorobenzyl) aminobenzoate] | significantly alleviated | significantly reduced | – | about 6 hours | 0.5 | significantly increased | 55.8
12 | COc1cc(NCc2cc(Cl)cc(Cl)c2O)c(Cl)cc1C(=O)OC1CC2CCC1(C)C2(C)C (stereo not drawn) [ZL006-25, bornyl-2-methoxy-4-(2-hydroxy-3,5-dichlorobenzyl) amino-5-chlorobenzoate] | – | – | – | – | – | – | 30.6
